Test results published in US20190269129A1, “COMPOSITION CONTAINING 1,2-DIBROMO-2,4-DICYANOBUTANE (DBDCB) AND ZINC PYRITHIONE (ZPT)” (LANXESS Deutschland GmbH, priority 2014, published 2019).

Tests used:
Assay type in all cases: cell-based
Details in all cases: 0.05 wt % biocide added
[1] = tested on: Molds: Acremonium strictum, Aspergillus niger and Geotrichum candidu; assay: Microbiological stress test, preservation of a polymer emulsion: molds
Source text: (§1) The preserving effect of an inventive composition comprising DBDCB and ZPT in a polymer emulsion (acrylate-based, pH=6.5) was investigated using a microbiological stress test. The microbiological stress test examines the susceptibility of water-based systems to microbial attack and the effect of preservatives. To this end, the preservatives are incorporated in defined concentrations into the water-based systems. […] Having knowledge of the microorganism populations prevalent in polymer emulsions and dispersions the experiment employed a mixture of the following microorganism types for testing: Molds: Acremonium strictum, Aspergillus niger and Geotrichum candidu.

[2] = tested on: Bacteria: Escherichia coli, Pseudomonas aeruginosa and Staphylococcus aureus; assay: Microbiological stress test, preservation of a polymer emulsion: bacteria
Source text: as §1, with “Bacteria: Escherichia coli, Pseudomonas aeruginosa” for “Molds: Acremonium strictum, Aspergillus niger”, “Staphylococcus aureus.” for “Geotrichum candidu.”

[3] = tested on: Yeasts: Candida albicans and Rhodotorula rubra; assay: Microbiological stress test, preservation of a polymer emulsion: yeasts
Source text: as §1, with “Yeasts: Candida albicans” for “Molds: Acremonium strictum, Aspergillus niger”, “Rhodotorula rubra.” for “Geotrichum candidu.”

[4] = week 1, polymer emulsion pH 6.5
[5] = week 2, polymer emulsion pH 6.5
[6] = week 3, polymer emulsion pH 6.5
[7] = week 4, polymer emulsion pH 6.5
[8] = week 5, polymer emulsion pH 6.5
[9] = week 6, polymer emulsion pH 6.5

## [O-][n+]1ccccc1[S-].[O-][n+]1ccccc1[S-].[Zn+2] [ZPT, zinc bis[2-pyridinethiolate]-N,N-dioxide]
[1]; [4]
  Activity of the biocides determined 1 week after germ addition, week 1: 2 (markedly reduced microbe level is observed (10^3−10^1 bacteria/10^2−10^1 mold/yeast cells per g) (score of 2=good))
[1]; [5]
  Activity of the biocides determined 1 week after germ addition, week 2: 2 (markedly reduced microbe level is observed (10^3−10^1 bacteria/10^2−10^1 mold/yeast cells per g) (score of 2=good))
[1]; [6]
  Activity of the biocides determined 1 week after germ addition, week 3: 2 (markedly reduced microbe level is observed (10^3−10^1 bacteria/10^2−10^1 mold/yeast cells per g) (score of 2=good))
[1]; [7]
  Activity of the biocides determined 1 week after germ addition, week 4: 2 (markedly reduced microbe level is observed (10^3−10^1 bacteria/10^2−10^1 mold/yeast cells per g) (score of 2=good))
[1]; [8]
  Activity of the biocides determined 1 week after germ addition, week 5: 2 (markedly reduced microbe level is observed (10^3−10^1 bacteria/10^2−10^1 mold/yeast cells per g) (score of 2=good))
[1]; [9]
  Activity of the biocides determined 1 week after germ addition, week 6: 2 (markedly reduced microbe level is observed (10^3−10^1 bacteria/10^2−10^1 mold/yeast cells per g) (score of 2=good))
[2]; [4]
  Activity of the biocides determined 1 week after germ addition, week 1: 0 (no reduction or only a minor reduction of the microbe level is observed (residual level of at least 10^5 bacteria/10^4 mold/yeast cells per g) (score of 0=poor))
[2]; [5]
  Activity of the biocides determined 1 week after germ addition, week 2: 0 (no reduction or only a minor reduction of the microbe level is observed (residual level of at least 10^5 bacteria/10^4 mold/yeast cells per g) (score of 0=poor))
[2]; [6]
  Activity of the biocides determined 1 week after germ addition, week 3: 0 (no reduction or only a minor reduction of the microbe level is observed (residual level of at least 10^5 bacteria/10^4 mold/yeast cells per g) (score of 0=poor))
[2]; [7]
  Activity of the biocides determined 1 week after germ addition, week 4: 0 (no reduction or only a minor reduction of the microbe level is observed (residual level of at least 10^5 bacteria/10^4 mold/yeast cells per g) (score of 0=poor))
[2]; [8]
  Activity of the biocides determined 1 week after germ addition, week 5: 0 (no reduction or only a minor reduction of the microbe level is observed (residual level of at least 10^5 bacteria/10^4 mold/yeast cells per g) (score of 0=poor))
[2]; [9]
  Activity of the biocides determined 1 week after germ addition, week 6: 0 (no reduction or only a minor reduction of the microbe level is observed (residual level of at least 10^5 bacteria/10^4 mold/yeast cells per g) (score of 0=poor))
[3]; [4]
  Activity of the biocides determined 1 week after germ addition, week 1: 2 (markedly reduced microbe level is observed (10^3−10^1 bacteria/10^2−10^1 mold/yeast cells per g) (score of 2=good))
[3]; [5]
  Activity of the biocides determined 1 week after germ addition, week 2: 2 (markedly reduced microbe level is observed (10^3−10^1 bacteria/10^2−10^1 mold/yeast cells per g) (score of 2=good))
[3]; [6]
  Activity of the biocides determined 1 week after germ addition, week 3: 2 (markedly reduced microbe level is observed (10^3−10^1 bacteria/10^2−10^1 mold/yeast cells per g) (score of 2=good))
[3]; [7]
  Activity of the biocides determined 1 week after germ addition, week 4: 2 (markedly reduced microbe level is observed (10^3−10^1 bacteria/10^2−10^1 mold/yeast cells per g) (score of 2=good))
[3]; [8]
  Activity of the biocides determined 1 week after germ addition, week 5: 2 (markedly reduced microbe level is observed (10^3−10^1 bacteria/10^2−10^1 mold/yeast cells per g) (score of 2=good))
[3]; [9]
  Activity of the biocides determined 1 week after germ addition, week 6: 2 (markedly reduced microbe level is observed (10^3−10^1 bacteria/10^2−10^1 mold/yeast cells per g) (score of 2=good))
